Measured values reported in patent publication US8202887B2, “2-(substituted-amino)-benzothiazole sulfonamide HIV protease inhibitors” (Janssen R&D Ireland, priority 2006, dated 2012).
Read-outs that look alike come from different tables or passages of the source.

Columns and labels:
Type in all cases: cell-based
[1] = tested on: wild type laboratory HIV strain (WT IIIB-2-001); assay: Cellular anti-viral assay in MT4-LTR-EGFP cells, wild type strain; conditions: for EC50: Human immunodeficiency virus 1, IIIB, 72 h, read-out: pEC50 WT-IIIB-2-001 (converted)
Experimental: The compounds were tested in a cellular assay using the MT4-LTR-EGFP cells for anti-viral activity.
The cellular assay was performed according to the following procedure. HIV- or mock-infected MT4-LTR-EGFP cells were incubated for three days in the presence of various concentrations of the compounds according to the invention. Upon infection, the viral tat protein activates the GFP reporter. At the end of the incubation period, the GFP signal was measured. […] The inhibitory activity of the compound was monitored on the virus-infected cells and was expressed as EC50. These values represent the amount of the compound required to protect 50% of the cells from virus infection.

[2] = tested on: clinically isolated HIV strain B; assay: Cellular anti-viral assay in MT4-LTR-EGFP cells, mutant strain B; conditions: for pEC50 virus strain B: MT4-LTR-EGFP cells, three days, GFP signal; for EC50: Human immunodeficiency virus 1, 72 h, read-out: pEC50 virus strain B (converted)
Experimental: (§1) Because of the increasing emergence of drug resistant HIV strains, the present compounds were tested for their potency against clinically isolated HIV strains harboring several mutations. These mutations are associated with resistance to protease inhibitors and result in viruses that show various degrees of phenotypic cross-resistance to the currently commercially available drugs such as for instance saquinavir, ritonavir, nelfinavir, indinavir and amprenavir. The viral strains coded as A, B, C and D contain mutations as indicated below in Table 2.
(§2) The cellular assay was performed according to the following procedure. HIV- or mock-infected MT4-LTR-EGFP cells were incubated for three days in the presence of various concentrations of the compounds according to the invention. Upon infection, the viral tat protein activates the GFP reporter. At the end of the incubation period, the GFP signal was measured. In the virus control samples (in the absence of any inhibitor) the maximal fluorescent signal was obtained. The inhibitory activity of the compound was monitored on the virus-infected cells and was expressed as EC50. These values represent the amount of the compound required to protect 50% of the cells from virus infection. (Table 3).

[3] = tested on: clinically isolated HIV strain C; assay: Cellular anti-viral assay in MT4-LTR-EGFP cells, mutant strain C; conditions: for pEC50 virus strain C: MT4-LTR-EGFP cells, three days, GFP signal; for EC50: Human immunodeficiency virus 1, 72 h, read-out: pEC50 virus strain C (converted)
Experimental: as §1, §2

[4] = tested on: clinically isolated HIV strain A; assay: Cellular anti-viral assay in MT4-LTR-EGFP cells, mutant strain A; conditions: for pEC50 virus strain A: MT4-LTR-EGFP cells, three days, GFP signal; for EC50: Human immunodeficiency virus 1, 72 h, read-out: pEC50 virus strain A (converted)
Experimental: as §1, §2

[5] = tested on: clinically isolated HIV strain D; assay: Cellular anti-viral assay in MT4-LTR-EGFP cells, mutant strain D; conditions: for pEC50 virus strain D: MT4-LTR-EGFP cells, three days, GFP signal; for EC50: Human immunodeficiency virus 1, 72 h, read-out: pEC50 virus strain D (converted)
Experimental: as §1, §2

[6] = MT4-LTR-EGFP cells, three days, GFP signal

Structure (SMILES) | pEC50 WT-IIIB-2-001 [1, 6] | pEC50 virus strain B [2] | pEC50 virus strain C [3] | pEC50 virus strain A [4] | pEC50 virus strain D [5] | pEC50 WT-IIIB-2-001 [1] | EC50 [1, 6] [nM] | EC50 [4] [nM] | EC50 [2] [nM] | EC50 [3] [nM] | EC50 [5] [nM]
CC(C)CN(CC(O)C(Cc1ccccc1)NC(=O)OC1COC2OCCC12)S(=O)(=O)c1ccc2nc(NC3CCN(Cc4ccncc4)C3)sc2c1 (stereo not shown) [Compound 22] | 7.71 | 7.77 | 6.19 | – | – | – | – | – | – | – | –
CC(C)CN1CCC(Nc2nc3ccc(S(=O)(=O)N(CC(C)C)C[C@@H](O)[C@H](Cc4ccccc4)NC(=O)O[C@H]4CO[C@H]5OCC[C@H]54)cc3s2)CC1 [Compound 6] | 8.31 | 7.58 | 5.46 | 7.84 | 7.86 | – | – | – | – | – | –
CC(C)CN(CC(O)C(Cc1ccccc1)NC(=O)OC1COC2OCCC12)S(=O)(=O)c1ccc2nc(NC3CCN(Cc4ccccn4)C3)sc2c1 (stereo not shown) [Compound 25] | 5.77 | 5.04 | <4.49 | 5.59 | 5.41 | – | – | – | – | – | –
CC(C)CN(CC(O)C(Cc1ccccc1)NC(=O)OC1COC2OCCC12)S(=O)(=O)c1ccc2nc(NC3CCN(Cc4cncs4)C3)sc2c1 (stereo not shown) [Compound 24] | 8.22 | 7.70 | 5.08 | 7.91 | 7.89 | – | – | – | – | – | –
CC(C)CN(C[C@@H](O)[C@H](Cc1ccccc1)NC(=O)O[C@H]1CO[C@H]2OCC[C@H]21)S(=O)(=O)c1ccc2nc(NC3CCN(Cc4ccncc4)CC3)sc2c1 [Compound 12] | 8.34 | 7.71 | 5.19 | 8.26 | 8.27 | – | – | – | – | – | –
CC(C)CN1CCC(Nc2nc3ccc(S(=O)(=O)N(CC(C)C)CC(O)C(Cc4ccccc4)NC(=O)OC4COC5OCCC45)cc3s2)C1 (stereo not shown) [Compound 19] | 8.42 | 7.33 | 5.35 | 7.84 | 7.75 | – | – | – | – | – | –
CC(C)CN(C[C@@H](O)[C@H](Cc1ccccc1)NC(=O)O[C@H]1CO[C@H]2OCC[C@H]21)S(=O)(=O)c1ccc2nc(NC3CCN(Cc4cncs4)CC3)sc2c1 [Compound 15] | – | 7.71 | 5.46 | 8.38 | 8.24 | 8.24 | – | – | – | – | –
CC(C)CN(C[C@@H](O)[C@H](Cc1ccccc1)NC(=O)O[C@H]1CO[C@H]2OCC[C@H]21)S(=O)(=O)c1ccc2nc(NC3CCN(Cc4ccccc4)CC3)sc2c1 [Compound 11, (1-Benzyl-3-{[2-(1-benzyl-piperidin-4-ylamino)-benzothiazole-6-sulfonyl]-isobutyl-amino}-2-hydroxy-propyl)-carbamic acid hexahydro-furo[2,3-b]furan-3-yl ester] | – | – | – | – | – | – | 2.51 | 22.4 | 33.9 | 5750 | 18.6
CC(C)CN(C[C@@H](O)[C@H](Cc1ccccc1)NC(=O)O[C@H]1CO[C@H]2OCC[C@H]21)S(=O)(=O)c1ccc2nc(NC3CCN(Cc4ccccn4)CC3)sc2c1 [Compound 13] | 8.18 | 7.94 | 6.04 | 8.06 | 7.98 | – | – | – | – | – | –
CC(C)CN(C[C@@H](O)[C@H](Cc1ccccc1)NC(=O)O[C@H]1CO[C@H]2OCC[C@H]21)S(=O)(=O)c1ccc2nc(NC3CCN(Cc4cccnc4)CC3)sc2c1 [Compound 14] | – | 7.78 | 5.90 | 7.85 | 7.84 | 7.85 | – | – | – | – | –
COCCN1CCC(Nc2nc3ccc(S(=O)(=O)N(CC(C)C)CC(O)C(Cc4ccccc4)NC(=O)OC4COC5OCCC45)cc3s2)C1 (stereo not shown) [Compound 18] | 7.76 | 7.24 | 5.32 | 7.61 | – | – | – | – | – | – | –
COCCN1CCC(Nc2nc3ccc(S(=O)(=O)N(CC(C)C)C[C@@H](O)[C@H](Cc4ccccc4)NC(=O)O[C@H]4CO[C@H]5OCC[C@H]54)cc3s2)CC1 [Compound 8] | 7.44 | 7.00 | 5.25 | 6.65 | – | – | – | – | – | – | –
COCCN1CCC(Nc2nc3ccc(S(=O)(=O)N(CC(C)C)C[C@@H](O)[C@H](Cc4ccccc4)NC(=O)O[C@H]4CO[C@H]5OCC[C@H]54)cc3s2)C1 (stereo in doubt) [Compound 17, [1-Benzyl-2-hydroxy-3-(isobutyl-{2-[1-(2-methoxy-ethyl)-pyrrolidin-3-ylamino]-benzothiazole-6-sulfonyl}-amino)-propyl]-carbamic acid hexahydro-furo[2,3-b]furan-3-yl ester] | – | – | – | – | – | – | 18.6 | 13.2 | 17 | 3390 | –
CC(C)CN1CCC(Nc2nc3ccc(S(=O)(=O)N(CC(C)C)CC(O)C(Cc4ccccc4)NC(=O)OC4COC5OCCC45)cc3s2)C1 (stereo not shown) [Compound 20] | 8.27 | 7.84 | 5.59 | 8.23 | 8.12 | – | – | – | – | – | –
CC(C)CN(CC(O)C(Cc1ccccc1)NC(=O)OC1COC2OCCC12)S(=O)(=O)c1ccc2nc(NC3CCN(Cc4cncs4)C3)sc2c1 (stereo not shown) [Compound 23] | 7.97 | 7.56 | 5.36 | 8.56 | 8.27 | – | – | – | – | – | –
CC(C)CN(C[C@@H](O)[C@H](Cc1ccccc1)NC(=O)O[C@H]1CO[C@H]2OCC[C@H]21)S(=O)(=O)c1ccc2nc(NC3CCN(Cc4cccnc4)C3)sc2c1 (stereo in doubt) [Compound 21, (1-Benzyl-2-hydroxy-3-{isobutyl-[2-(1-pyridin-3-ylmethyl-pyrrolidin-3-ylamino)-benzothiazole-6-sulfonyl}-amino]-propyl)-carbamic acid hexahydro-furo[2,3-b]furan-3-yl ester] | – | – | – | – | – | – | 11.2 | 4.9 | 14.5 | 1820 | 7.08
CC(C)CN(C[C@@H](O)[C@H](Cc1ccccc1)NC(=O)O[C@H]1CO[C@H]2OCC[C@H]21)S(=O)(=O)c1ccc2nc(NC3CCN(C(=O)CN4CCOCC4)CC3)sc2c1 [Compound 10] | 6.53 | 6.52 | 5.11 | 6.84 | 6.62 | – | – | – | – | – | –
CC(C)CN(C[C@@H](O)[C@H](Cc1ccccc1)NC(=O)O[C@H]1CO[C@H]2OCC[C@H]21)S(=O)(=O)c1ccc2nc(NC3CCNC3)sc2c1 (stereo partly shown) [Compound 16] | 6.82 | 5.89 | 5.90 | 5.93 | – | – | – | – | – | – | –
CC(C)CN(C[C@@H](O)[C@H](Cc1ccccc1)NC(=O)O[C@H]1CO[C@H]2OCC[C@H]21)S(=O)(=O)c1ccc2nc(NC3CCN(C(=O)CN(C)C)CC3)sc2c1 [Compound 9] | 6.56 | 6.59 | 5.00 | 6.99 | 6.99 | – | – | – | – | – | –
CC(C)CN(C[C@@H](O)[C@H](Cc1ccccc1)NC(=O)O[C@H]1CO[C@H]2OCC[C@H]21)S(=O)(=O)c1ccc2nc(NC3CCN(C(C)C)CC3)sc2c1 [Compound 5] | 7.72 | 7.57 | 5.38 | 7.89 | 7.86 | – | – | – | – | – | –
